Results published in US11345725B2, “Bis-thioether stapled peptides as inhibitors of PRC2 function” (Research Foundation of the City University of New York, priority 2019, dated 2022).
Where two headings read alike, the source gives them in different places. One block for each compound: values may come before it. Starred links: 1 amine or outer side, 2 acyl side, 3 side chain; linkers in the order of their positions; H or OH if unused. Positions of bridges follow the written chain, without caps; N, C: chain ends. Residues, ends and D or L forms follow the SMILES beside them. X4 = C(CCC[*:2])CC[*:1]; X2 = C(CC[*:1])CC[*:2]; X1 = C(C[*:1])C[*:2]

What was measured:
circular dichroism = details: deionized water; pH unbuffered; 20 °C; 25 uM
[1] = target: T1, α-chymotrypsin from bovine pancreas type II (Bos taurus, UniProt P00766); experiment: Chymotrypsin stability test; format: in vitro ADME
T1 construct: freshly prepared α-chymotrypsin from bovine pancreas type II, ≥40 U/mg; purchased; host or cells: bovine pancreas
Method: Assays were performed using freshly prepared α-chymotrypsin from bovine pancreas type II, ≥40 U/mg. The enzyme was initially reconstituted in HCl […] (1 μg/μL), and kept in ice until used. Peptides stock solutions were prepared in assay buffer (50 mM Tris.HCl pH=8.0, 560 μM calcium chloride, 0.1% Tween-20) containing <3% of DMSO. The reactions were performed at a 200 μL scale, in assay buffer, at final concentrations of 50 μM for peptide and […] for α-chymotrypsin (10 μL from the reconstitution solution). The mixture was incubated at 37° C. and aliquots were withdrawn in portions of 25 μL at different time points for analysis. The removed aliquots were mixed with 25 μL of water 1% TFA, and then treated with a column for detergent removal following the manufacturer's protocol (Pierce, Catalog #:87776). The rate of peptide proteolysis was monitored by HPLC and HPLC-MS analysis. Control experiments were carried out under the same conditions but using BSA instead of α-chymotrypsin.

[2] = Circular dichroism (helicity); format: physicochemical; details: CD in water, 20° C.
Method: Circular dichroism spectra were recorded on a CHIRASCAN™ spectrometer. Peptides were dissolved in deionized water, at a concentration of 25 μM. CD signal was monitored at 1 nm intervals from 180 to 260 nm with a 1-mm path quartz cuvette. The data reported is the average of three scans, subtracting the background. The helical content of each peptide was determined using prism 7 software, with molar ellipticity [θ][deg·cm^2dmol^−1] being calculated using the following formula: [θ]=1000000×0/(C×#of residues×l), where θ is the ellipticity read out from Chirascan, C is the concentration of peptide samples in μM, l is the pathlength of the cuvette measured in mm. The percentage helicity was calculated with formula:% Hellicity=100×[θ]222/[θ]max222, where [θ]max222=−31500×[1−([…])].

Plasma stability test = format: in vitro ADME; details: human plasma, 37° C.
Method: 1 mM stock solution of the corresponded peptide was prepared in PBS buffer (pH 7.4). Next, 50 μL from […] this solution were added to 1 mL of human plasma (Sigma-Aldrich, P9523). The mixture was incubated at 37° C. with mechanical shaking at 300 rpm. Aliquots were withdrawn in portions of 150 μL at different time points for analysis and mixed with 60 μL ACN/EtOH (1:1 v/v) for plasma protein precipitation. After centrifugation at 12000 rpm for 5 min, the supernatant was collected and analyzed by HPLC and HPLC-MS.

FIG. 2D = experiment: FIG. 2D
Excerpt: Table printed on a drawing sheet, FIG. 2D
(§1) The patent's description of the figure: FIG. 2A depicts the results of biochemical assays showing structure of the synthesized stapled peptides, and their correspondent helicity and IC50 values for inhibition of H3K27 trimethylation in vitro, as determined by a histone methyltransferase colorimetric assay optimized using endogenous PRC2 extracted from a human clear cell renal carcinoma cell line (Caki-1);
(§2) FIG. 2B depicts a CD spectra of stapled peptides and their linear counterparts measured in water at 20° C.;
FIG. 2C illustrates a plot of H3K27 trimethylation inhibition using the enzymatic in vitro assay described in FIG. 2A, with varying concentrations of 2 (GN-ZB2), positive control GSK126, and using an equimolar combination of both compounds to test their synergistic effects. A summary of the IC50 values for inhibition of H3K27me3 determined from the experiments is also presented. […]
(§3) FIG. 2D show both Chymotrypsin-based proteolytic degradation as well as the plasma assay show remarkable stability of the disclosed i, i+4 and i, i+7 12 bisthioether stapled peptides. The rate of peptide proteolysis was monitored by HPLC and HPLC-MS analysis.
First reader's note: The Assay column joins the peptide number (label) with the matrix (chymotrypsin or plasma, condition); units stand in the cells.

[3] = test system: endogenous PRC2 extracted from a human clear cell renal carcinoma cell line (Caki-1); experiment: IC50 (uM)
Excerpt: Table printed on a drawing sheet, FIG. 2A
Head of the field: IC50 (uM)
as §1, §2
FIG. 2C illustrates a plot of H3K27 trimethylation inhibition using the enzymatic in vitro assay described in FIG. 2A, with varying concentrations of 2 (GN-ZB2), positive control GSK126, and using an equimolar combination of both compounds to test their synergistic effects. A summary of the IC50 values for inhibition of H3K27me3 determined from the experiments is also presented. Calculation of the combination index using the equation described by Chou et al. indicated a marked synergistic effect (CI=0.53) of 2 (GN-ZB2) and GSK126;
as §3
First copying reader's note: IC50 cells hold the value and its ± error together.
Where the first naming reader finds the target: description_of_the_figure: histone methyltransferase colorimetric assay optimized using endogenous PRC2 extracted from a human clear cell renal carcinoma cell line (Caki-1)

FIG. 5A = experiment: FIG. 5A
Method: (§4) Table printed on a drawing sheet, FIG. 5A
(§5) FIG. 5C is a CD spectra of stapled peptides and their linear counterparts measured in water at 20° C.;
(§6) FIG. 5E is a plot of H3K27me3 inhibition obtained in an enzymatic assay using endogenous PRC2 extracted from Caki-1 cells and recombinant PRC2 complex (for compound 11);
First reader's note: Half-life units (min or h) stand in the cells; the compound structures are in the upper table of FIG. 5A.

[4] = test system: endogenous PRC2 extracted from a human clear cell renal carcinoma cell line (Caki-1); experiment: H3K27Me3 Inhibition (% at 1 mM)
Method: as §4
Head of the field: H3K27Me3 Inhibition (% at 1 mM)
as §5, §6
First copying reader's note: Half-life units (min or h) stand in the cells; the compound structures are in the upper table of FIG. 5A.
Where the first naming reader finds the target: passage: using as catalytic complex endogenous PRC2 extracted from a human clear cell renal carcinoma cell line (Caki-1)

Caki-1 cells = format: cell-based, human
Method: All of the cells were grown adherently.
Antiproliferative assays. […] For the following 72h, every 24 h the cell culture media was changed and fresh media containing the compounds was added, 1% DMSO was used as control. After 72h of treatment, both floating and attached cells were collected and analyzed.

- time to full degradation by chymotrypsin [1]: half an hour
- half-life ([1]; bovine, read-out: t1/2 chymotrypsin stability assay (converted)): 30 min
Compound: Ac-VINEEYKIWKKNTPFL-NH2 [compound 13, reference compound]
- helicity (circular dichroism): 16.4%

- helicity [2]: 4.8%
- time to full degradation in plasma (Plasma stability test): 5 min
Compound: Ac-TVDKIASALSVLAEEVPQN-NH2 [compound 1, reference compound]
- helicity (circular dichroism): 4.8%

Compound: CC[C@H](C)[C@@H]1NC(=O)[C@@H](NC(=O)[C@H](CC(=O)O)NC(=O)[C@@H](NC(=O)[C@@H](NC(C)=O)[C@@H](C)O)C(C)C)CSCCCSC[C@@H](C(=O)N[C@@H](CC(C)C)C(=O)N[C@@H](CO)C(=O)N[C@H](C(=O)N[C@@H](CC(C)C)C(=O)N[C@@H](C)C(=O)N[C@@H](CCC(=O)O)C(=O)N[C@@H](CCC(=O)O)C(=O)N[C@H](C(=O)N2CCC[C@H]2C(=O)N[C@@H](CCC(N)=O)C(=O)N[C@@H](CC(N)=O)C(N)=O)C(C)C)C(C)C)NC(=O)[C@H](CO)NC(=O)[C@H](C)NC1=O [2 Plasma] (Ac-TVDCIASCLSVLAEEVPQN-NH2; linker 4-8 via X1)
- Half Life (FIG. 2D): 20.6 h

- IC50 [3]: 27.1 ± 1.2 µM
Compound: Ac-TVDKIASA[CSVLAEEC]PQN-CONH2 CH2(CH2)5CH2 (TVDKIASACSVLAEECPQN; N-acetyl, C-amide, heptylene bisthioether staple; Synthetic bisthioether stapled peptide; Compound 5; THIOETH (9)..(16) (CH2)7 linker between residues 9 and 16) [5 | SEQ ID NO: 7]

Compound: CC[C@H](C)[C@H](NC(=O)[C@H](CC(C)C)NC(=O)[C@H](Cc1ccccc1)NC(=O)[C@H](CC(=O)O)NC(=O)[C@H](Cc1c[nH]cn1)NC(=O)[C@H](CCSC)NC(=O)[C@H](CO)NC(=O)[C@@H](NC(=O)[C@@H]1CSCCCSC[C@H](NC(=O)[C@H](CC(N)=O)NC(=O)[C@H](CCCNC(=N)N)NC(=O)[C@H](CS)NC(=O)[C@H](CC(C)C)NC(C)=O)C(=O)N[C@@H](CCSC)C(=O)N[C@@H](CC(C)C)C(=O)N[C@@H](Cc2c[nH]cn2)C(=O)N1)C(C)C)C(N)=O [11 (GN-ZW11), LCRN[CMLHC](CH2)3VSMHDFLI] (Ac-LCRNCMLHCVSMHDFLI-NH2; linker 5-9 via X1)
- Proteolytic Stability (Chymotripsin, t1/2) (FIG. 5A): 14.4 h
- Proteolytic Stability (Plasma, t1/2) (FIG. 5A): 7.3 h
- helicity (circular dichroism): 95.1%
- H3K27Me3 Inhibition (% at 1 mM) [4]: 98.3 % at 1 mM

Compound: CC[C@H](C)[C@@H]1NC(=O)[C@@H](NC(=O)[C@H](CC(=O)O)NC(=O)[C@@H](NC(=O)[C@@H](NC(C)=O)[C@@H](C)O)C(C)C)CSCCCSC[C@@H](C(=O)N[C@@H](CC(C)C)C(=O)N[C@@H](CO)C(=O)N[C@H](C(=O)N[C@@H](CC(C)C)C(=O)N[C@@H](C)C(=O)N[C@@H](CCC(=O)O)C(=O)N[C@@H](CCC(=O)O)C(=O)N[C@H](C(=O)N2CCC[C@H]2C(=O)N[C@@H](CCC(N)=O)C(=O)N[C@@H](CC(N)=O)C(N)=O)C(C)C)C(C)C)NC(=O)[C@H](CO)NC(=O)[C@H](C)NC1=O [2 (GN-ZB2), TVD[CIASC](CH2)3LSVLAEEVPQN] (Ac-TVDCIASCLSVLAEEVPQN-NH2; linker 4-8 via X1; C-terminus assumed)
- IC50 (Caki-1 cells; 72 h): 250 ± 30 nM
- stability in plasma (Plasma stability test): high resistance to proteolysis

- IC50 [3]: 17 ± 1.4 µM
Compound: Ac-TVDKIASA[CSVLAEEC]PQN-CONH2 CH2(CH2)6CH2 (TVDKIASACSVLAEECPQN; N-acetyl, C-amide, octylene bisthioether staple; Synthetic bisthioether stapled peptide; Compound 6; THIOETH (9)..(16) (CH2)8 linker between residues 9 and 16) [6 | SEQ ID NO: 8]

Compound: CC[C@H](C)n1cc(C)c2c(C(=O)NCc3c(C)cc(C)[nH]c3=O)cc(-c3ccc(N4CCNCC4)nc3)cc21 [GSK126]
- IC50 (Caki-1 cells; Caki-1 cells, 72h daily treatment, colorimetric method, read-out: IC50 cell proliferation): 150 ± 60 nM
- effect on cell proliferation (Caki-1 cells; Caki-1 cells, 72h of daily treatment): significantly inhibits cell proliferation

Compound: CC[C@H](C)[C@@H]1NC(=O)[C@@H](NC(=O)[C@H](CC(=O)O)NC(=O)[C@@H](NC(=O)[C@@H](NC(C)=O)[C@@H](C)O)C(C)C)CSCCCSC[C@@H](C(=O)N[C@@H](CC(C)C)C(=O)N[C@@H](CO)C(=O)N[C@H](C(=O)N[C@@H](CC(C)C)C(=O)N[C@@H](C)C(=O)N[C@@H](CCC(=O)O)C(=O)N[C@@H](CCC(=O)O)C(=O)N[C@H](C(=O)N2CCC[C@H]2C(=O)N[C@@H](CCC(N)=O)C(=O)N[C@@H](CC(N)=O)C(N)=O)C(C)C)C(C)C)NC(=O)[C@H](CO)NC(=O)[C@H](C)NC1=O [2 Chymotrypsin] (Ac-TVDCIASCLSVLAEEVPQN-NH2; linker 4-8 via X1)
- Half Life (FIG. 2D): 40.9 h

- IC50 [3]: 10.1 ± 1.1 µM
Compound: Ac-TVDKIASA[CSVLAEEC]PQN-CONH2 CH2(CH2)4CH2 (TVDKIASACSVLAEECPQN; N-acetyl, C-amide, hexylene bisthioether staple; Synthetic bisthioether stapled peptide; compound 4; THIOETH (9)..(16) (CH2)6 linker between residues 9 and 16) [4 | SEQ ID NO: 6]

Compound: CC[C@H](C)[C@H](NC(=O)[C@H](CCC(N)=O)NC(=O)[C@@H](NC(=O)[C@@H]1CSCCCCCSC[C@H](NC(=O)[C@H](CC(C)C)NC(=O)[C@H](Cc2c[nH]c3ccccc23)NC(=O)[C@H](CCC(=O)O)NC(C)=O)C(=O)N[C@@H](CCC(=O)O)C(=O)N[C@@H](CCCCN)C(=O)N[C@@H]([C@@H](C)O)C(=O)N1)[C@@H](C)O)C(=O)N[C@@H](CCC(=O)O)C(=O)N[C@@H](CCC(=O)O)C(=O)N[C@@H](Cc1ccccc1)C(N)=O (Ac-EWLCEKTCTQIEEF-NH2; linker 4-8 via X2)
- helicity (circular dichroism): 19.7%

Compound: CC[C@H](C)[C@H](NC(=O)[C@@H]1CSCCCCCCSC[C@H](NC(=O)[C@@H](NC(=O)[C@@H](NC(C)=O)C(C)C)[C@@H](C)CC)C(=O)N[C@@H](CCC(=O)O)C(=O)N[C@@H](CCC(=O)O)C(=O)N[C@@H](Cc2ccc(O)cc2)C(=O)N1)C(=O)N[C@@H](Cc1c[nH]c2ccccc12)C(=O)N[C@@H](CCCCN)C(=O)N[C@@H](CCCCN)C(=O)N[C@@H](CC(N)=O)C(=O)N[C@H](C(=O)N1CCC[C@H]1C(=O)N[C@@H](Cc1ccccc1)C(=O)N[C@@H](CC(C)C)C(N)=O)[C@@H](C)O (Ac-VICEEYCIWKKNTPFL-NH2; linker 3-7 via X4)
- helicity (circular dichroism): 19.4%
